From patent US20250136607A1 (REGOR PHARMACEUTICALS, INC., priority 2021, published 2025)
Like-named read-outs stand apart in the source and are kept apart here.

Experiments:
[1] = tested on: Citrullinated Histone H3 in dHL-60 cells (differentiated HL-60); assay: dHL-60 Cit-H3 ELISA assay; assay type: cell-based, human; details: read-out: Average IC50 Abs
How it was run: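 HL-60 cells differentiated 72 h with DMF, plated at 1×10^5/well, pretreated 30 min with compound (8-point 3-fold series, 0.2% DMSO), then stimulated 3 h at 37 °C with 25 μM A23187 plus S7 nuclease. Supernatant citrullinated H3 quantified by HRP ELISA at 450 nm; IC50 by four-parameter fit.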

[2] = target: Protein arginine deiminase 4 (PAD4) (Homo sapiens, UniProt Q9UM07); assay: PAD4 ammonia release assay; assay type: biochemical; details: for IC50: PAD4 ammonia release assay, BAEE substrate, 60 min at RT, read-out: Average IC50 Abs; for relative potency of separated isomers in the PAD4 biochemical assay: SFC-separated stereoisomer pairs
How it was run: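 PAD4 (20 nM, 2× working solution) was preincubated with compound for 15 min at RT in 100 mM HEPES pH 8.0, 2 mM CaCl2, 50 mM NaCl, 0.1 mM TCEP, BSA at 1.25% DMSO. BAEE (600 μM, 2× mix) reacted 60 min, then OPA/DTT/EDTA detection for 120 min. IC50 came from a 4-parameter fit, normalized to 50 μM reference (100%) and DMSO (0%).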

[3] = stimulation with 25 μM A23187 for 3 h
[4] = Homo sapiens, HL-60, 3 h, stimulation with 25 μM A23187 for 3 h

Protein arginine deiminase 4 (PAD4), sequence (Q9UM07 whole entry): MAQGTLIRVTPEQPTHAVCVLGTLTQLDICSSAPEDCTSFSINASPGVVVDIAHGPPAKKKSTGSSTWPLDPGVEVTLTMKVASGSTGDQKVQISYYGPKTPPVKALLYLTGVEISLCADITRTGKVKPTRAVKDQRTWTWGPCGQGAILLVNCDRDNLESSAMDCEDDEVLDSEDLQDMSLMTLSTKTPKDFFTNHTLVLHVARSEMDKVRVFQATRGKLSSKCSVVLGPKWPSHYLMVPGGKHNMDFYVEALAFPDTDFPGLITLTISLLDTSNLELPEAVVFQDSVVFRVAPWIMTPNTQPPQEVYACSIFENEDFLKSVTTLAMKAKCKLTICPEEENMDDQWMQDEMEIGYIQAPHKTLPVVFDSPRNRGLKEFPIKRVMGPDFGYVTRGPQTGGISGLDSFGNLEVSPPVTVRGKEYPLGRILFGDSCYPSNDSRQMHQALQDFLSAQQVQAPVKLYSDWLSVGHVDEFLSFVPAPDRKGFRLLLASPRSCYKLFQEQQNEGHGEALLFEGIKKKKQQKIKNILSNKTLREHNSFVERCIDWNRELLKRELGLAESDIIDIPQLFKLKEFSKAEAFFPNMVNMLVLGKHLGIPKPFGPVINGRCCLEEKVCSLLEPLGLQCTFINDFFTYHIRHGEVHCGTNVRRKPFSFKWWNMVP

Row | Compound | IC50 [1, 3] [nM] | IC50 [2] [nM] | relative potency of separated isomers in the PAD4 biochemical assay [2] | IC50 [1, 4] [nM] | IC50 ([1]; Homo sapiens, HL-60, stimulation with 25 μM A23187 for 3 h) [nM]
1 | CCC1CN(CCCO)c2cccc3cc(-c4nc5cc(C(=O)N6C[C@H]7CC[C@@H]6[C@@H]7N)cc(OC)c5n4C)n1c23 (single isomer, unassigned) [Example 87] | ≤ 100 | 100 to 500 | more potent than Example 86 | – | –
2 | CCC1CN(CCCO)c2cccc3cc(-c4nc5cc(C(=O)N6C[C@H]7CC[C@@H]6[C@@H]7N)cc(OC)c5n4C)n1c23 (single isomer, unassigned) [Example 86] | 500 to 5000 | > 5000 | – | – | –
3 | C#CCn1c(-c2cc3cccc4c3n2C(CC)CN4CCCO)nc2cc(C(=O)N3C[C@H](N)C[C@@H](F)C3)cc(OC)c21 (stereo partly drawn) [Example 95, ((3R,5R)-3-amino-5-fluoropiperidin-1-yl)(2-(3-ethyl-1-(3-hydroxypropyl)-2,3-dihydro-1H-pyrrolo[1,2,3-de]quinoxalin-5-yl)-7-methoxy-1-(prop-2-yn-1-yl)-1H-benzo[d]imidazol-5-yl)methanone] | – | 100 to 500 | – | 100 to 500 | –
4 | CCC1CN(CCCO)c2cccc3cc(-c4nc5cc(C(=O)N6C[C@H](N)C[C@@H](F)C6)cc(OC)c5n4C)n1c23 (single isomer, unassigned) [Example 82] | ≤ 100 | ≤ 100 | more potent than Example 81 | – | –
5 | CCC1CN(CCCO)c2cccc3cc(-c4nc5cc(C(=O)N6C[C@H]7CC[C@@H]6[C@@H]7N)cc(F)c5n4CC)n1c23 (stereo partly drawn) [Example 96, ((1R,4R,7R)-7-amino-2-azabicyclo[2.2.1]heptan-2-yl)(1-ethyl-2-(3-ethyl-1-(3-hydroxypropyl)-2,3-dihydro-1H-pyrrolo[1,2,3-de]quinoxalin-5-yl)-7-fluoro-1H-benzo[d]imidazol-5-yl)methanone] | – | 100 to 500 | – | – | ≤ 100
6 | CCC1CN(CCCO)c2cccc3cc(-c4nc5cc(C(=O)N6C[C@H](N)C[C@@H](F)C6)cc(F)c5n4C)n1c23 (stereo partly drawn) [Example 75, ((3R,5R)-3-amino-5-fluoropiperidin-1-yl)(2-(3-ethyl-1-(3-hydroxypropyl)-2,3-dihydro-1H-pyrrolo[1,2,3-de]quinoxalin-5-yl)-7-fluoro-1-methyl-1H-benzo[d]imidazol-5-yl)methanone] | – | 100 to 500 | – | 100 to 500 | –
